Measured values published in US20260151518A1, “LEUKOCYTE-SPECIFIC CELL PENETRATING MOLECULES” (Amytrx Therapeutics, Inc., priority 2021, published 2026).

Test: Concentrations of radioactivity in whole blood, plasma, WBC depleted blood and recovered white blood cells after single subcutaneous administration of [3H]-AMTX-100
Format: in vivo, rat
Parameters: key to Concentration of radioactivity in Recovered White Blood Cells: BLQ: Below limit of accurate quantification
Settings: 5 mg/kg; for Concentration of radioactivity in WBC depleted blood / Concentration of radioactivity in Whole Blood / Concentration of radioactivity in Plasma / Concentration of radioactivity in Recovered White Blood Cells: rat; for Concentration of radioactivity in Plasma: plasma not depleted of white blood cells; for Concentration of radioactivity in Recovered White Blood Cells: reverse wash of filters; for Cmax, total radioactivity: male non-pigmented rats
Method: [^3H]-NSP labelling. For the main phase of the study, the test protein was prepared, radiolabeled with N-succinimidyl-[2,3-3H]-propionate ([^3H]-NSP) and purified as described below.
Three aliquots of 1.6 mL [^3H]-NSP solution were dispensed into appropriate vials. The solvent was evaporated under a gentle stream of nitrogen gas at ambient temperature. Once enough of the solvent had been evaporated, the three aliquots were combined into one vial and the remaining solvent evaporated until dryness. The residue in the vial was re-suspended in 0.6 mL of 1 mg/mL AMTX-100 by gently vortex mixing to ensure complete mixing of the protein with the labelling reagent. The solutions were allowed to stand at ambient temperature for approximately 1 hour.
The [^3H]-NSP-protein solutions were then purified by reverse phase chromatography techniques and the resulting solution was frozen and lyophilized using a freeze drier. The resulting material was dissolved in 2 mL ethanol:water (50:50) and stored at approximately −20° C. prior to formulation for dose preparation.
Formulation. The required quantities of each radiolabeled test item were combined with the corresponding non-labelled test item as appropriate to achieve a radioactive concentration sufficient to meet the aims of the study. Dose solutions were prepared in PBS buffer pH 7.4, with the intention of administering a total dose volume of […], (2.5 ml/kg, […]).
Whole blood was collected into tubes containing K2-EDTA as anticoagulant. Following collection, an aliquot of whole blood (approximately 4 mL) was retained for analysis of whole blood and white blood cell (WBC) concentrations. The remaining whole blood samples were processed to plasma. Plasma samples were not depleted of white blood cells.
AMTX-100 was radiolabeled with 3H at lysine residues and injected into Sprague-Dawley rats in a single dose by seven different routes (intravenous, subcutaneous, topical [skin], intratracheal, intraduodenal, esophageal, and oral). The rats were evaluated at various time points, up to 120 hours, by: a) blood samples were taken for pharmacokinetics (PK) by cardiac puncture; b) rats were frozen and sectioned for QWBA and/or micro-auto-radiography and histology; and c) frozen sections were made and freeze dried and exposed to phosphor-storage imaging plates and tissue radioactivity in images was quantified as tissue: blood ratios.
For all PK studies, the following definitions were used: WB=whole blood; Plasma=whole blood depleted of red blood cells; WBCD=whole blood depleted of white blood cells in which the whole blood is passed over a Pall Acrodisc filter (about 60% efficient); WBCs=the cells which bind to, and are washed off, the Pall Acrodisc filter.

## CSCC[C@@H]1NC(=O)[C@H](CC(C)C)NC(=O)[C@H](CCCCN)NC(=O)[C@H](CCC(N)=O)CC(=O)[C@H](CCCNC(=N)N)NC(=O)[C@H](CCCCN)NC(=O)[C@H](CCCNC(=N)N)NC(=O)[C@H](CCC(N)=O)NC(=O)[C@H](C(C)C)NC(=O)[C@@H](NC(=O)[C@@H]2CCCN2C(=O)[C@H](C)NC(=O)[C@H](CC(C)C)NC(=O)[C@H](CC(C)C)NC(=O)[C@H](C)NC(=O)[C@H](CC(C)C)NC(=O)[C@H](CC(C)C)NC(=O)[C@@H](NC(=O)[C@H](C)NC(=O)[C@@H]2CCCN2C(=O)[C@H](CC(C)C)NC(=O)[C@H](CC(C)C)NC(=O)[C@H](C)NC(=O)[C@@H](NC(=O)[C@H](C)NC(=O)[C@H](C)N)C(C)C)C(C)C)CSSC[C@@H](C(=O)O)NC(=O)[C@@H]2CCCN2C1=O [[^3H]-AMTX-100]
1 h
  Concentration of radioactivity in WBC depleted blood: 0.015 μg equivalents/mL
  Concentration of radioactivity in Whole Blood: 0.081 μg equivalents/mL
  Concentration of radioactivity in Plasma: 0.110 μg equivalents/mL
  Concentration of radioactivity in Recovered White Blood Cells: BLQ
2 h
  Concentration of radioactivity in WBC depleted blood: 0.011 μg equivalents/mL
  Concentration of radioactivity in Whole Blood: 0.059^3 μg equivalents/mL
  Concentration of radioactivity in Plasma: 0.084 μg equivalents/mL
  Concentration of radioactivity in Recovered White Blood Cells: BLQ
4 h
  Concentration of radioactivity in WBC depleted blood: 0.011 μg equivalents/mL
  Concentration of radioactivity in Whole Blood: 0.054 μg equivalents/mL
  Concentration of radioactivity in Plasma: 0.068 μg equivalents/mL
  Concentration of radioactivity in Recovered White Blood Cells: BLQ
8 h
  Concentration of radioactivity in WBC depleted blood: 0.011 μg equivalents/mL
  Concentration of radioactivity in Whole Blood: 0.070 μg equivalents/mL
  Concentration of radioactivity in Plasma: 0.090 μg equivalents/mL
  Concentration of radioactivity in Recovered White Blood Cells: BLQ
24 h
  Concentration of radioactivity in WBC depleted blood: 0.021 μg equivalents/mL
  Concentration of radioactivity in Whole Blood: 0.120 μg equivalents/mL
  Concentration of radioactivity in Plasma: 0.146 μg equivalents/mL
  Concentration of radioactivity in Recovered White Blood Cells: BLQ
48 h
  Concentration of radioactivity in WBC depleted blood: 0.033 μg equivalents/mL
  Concentration of radioactivity in Whole Blood: 0.186 μg equivalents/mL
  Concentration of radioactivity in Plasma: 0.221 μg equivalents/mL
  Concentration of radioactivity in Recovered White Blood Cells: BLQ
Plasma
  Cmax, total radioactivity: 0.221 µg/mL
WBCD blood
  Cmax, total radioactivity: 0.033 µg/mL
Whole blood
  Cmax, total radioactivity: 0.186 µg/mL
